Test results: patent US20060198914A1, “Use of rutin and isoharmnetin for treating depressive states and depression and other emotion disorders” (Bioplanta Arzneimittel GmbH, priority 2003, published 2006)

System: rats
Assay: forced swimming test in rats
Type: in vivo
Procedure: The antidepressive efficacy was examined by means of the so-called “forced swimming test” in rats. In performing this test rats are brought into an impasse situation (glass cylinder filled with water) over a specified period of 5 minutes. In this test the rats react with a rigor referred to as an immobilization period which is interpreted as a correlative to a depression. If the rats are treated with medicaments having an antidepressive efficacy before carrying out the test, the immobilization period is decreased. Since other psychotropic drugs such as anxiolytics or neuroleptics are not effective in this test, this test system is well suitable for detecting antidepressive effects (Porsolt et al. 1978; Porsolt, 1991). In this test all hitherto known antidepressives have to be administered over a period of several days in order to be effective (similar to the administration to patients). The test animals were treated either with the test substance or for control purposes with the solvent only or with the tricyclic antidepressive imipramine for a comparison of the efficacy.
The following tables exemplarily show the efficacy of rutin, isorhamnetin and plant extracts containing isorhamnetin derivatives or rutin in sufficient amounts. In each table the inhibition of the immobility is expressed in terms of % inhibition against the control group for comparison purposes.

Row | Structure (SMILES) | Inhibition of immobility [% of the control] (Table 1, dose 30 mg/kg) | Inhibition of immobility [% of the control] (Table 2, dose 3 mg/kg) | Inhibition of immobility [% of the control] (Table 2, dose 10 mg/kg) | Inhibition [% of the control] (Table 3, dose 20 mg/kg) | Inhibition [% of the control] (Table 4, dose 20 mg/kg) | Inhibition [% of the control] (Table 5, dose 30 mg/kg) | Inhibition of immobility [% of the control] (Table 1, dose 3 mg/kg) | Inhibition of immobility [% of the control] (Table 1, dose 6 mg/kg) | Inhibition of immobility [% of the control] (Table 1, dose 12 mg/kg) | Inhibition of immobility [% of the control] (Table 1, dose 24 mg/kg) | Inhibition of immobility [% of the control] (Table 1, dose 48 mg/kg)
1 | CN(C)CCCN1c2ccccc2CCc2ccccc21 [Imipramine, imipramine, reference compound] | 46 % of the control | 3 % of the control | 24 % of the control | 43 % of the control | 43 % of the control | 64 % of the control |  |  |  |  | 
2 | COc1cc(-c2oc3cc(O)cc(O)c3c(=O)c2O)ccc1O [Isorhamnetin, 3,5,7-trihydroxy-2-(4-hydroxy-3-methoxyphenyl)-4H-1-benzopyran-4-one] |  | 17 % of the control | 56 % of the control |  |  |  |  |  |  |  | 
3 | C[C@@H]1O[C@@H](OC[C@H]2O[C@@H](Oc3c(-c4ccc(O)c(O)c4)oc4cc(O)cc(O)c4c3=O)[C@H](O)[C@@H](O)[C@@H]2O)[C@H](O)[C@H](O)[C@H]1O [Rutin, 3-[[6-O-(6-deoxy-α-L-mannopyranosyl)-β-D-glucopyranosyl]oxy]-2-(3,4-dihydroxyphenyl)-5,7-dihydroxy-4H-1-benzopyran-4-one] |  |  |  |  |  |  | 8 % of the control | 41 % of the control | 42 % of the control | 49 % of the control | 74 % of the control
